# From patent US20230051589A1, “COMPOUNDS AND COMPOSITIONS FOR TREATING CONDITIONS ASSOCIATED WITH NLRP ACTIVITY” (Novartis AG, priority 2018, published 2023)
# Test system: IL-1β production in PMA-differentiated THP-1 cells
# Experiment: IL-1β production in PMA-differentiated THP-1 cells stimulated with gramicidin (hTHP-1 assay, 2% fetal bovine serum; Procedures 1-3)
# Assay type: cell-based, human
# Conditions: Homo sapiens, THP-1, Table B3; hTHP-1 assay containing 2% fetal bovine serum, gramicidin stimulation, IL-1β readout; read-out: hTHP-1 IC50
# How it was run: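 IL-1β released into supernatants was read by HTRF after 2 h gramicidin (5 μM) challenge. Before challenge, compounds (3-fold dilutions, top 100 μM, 0.37% DMSO) were given 1 h on THP-1 cells differentiated with PMA (20 ng/ml, 16-18 h) and held in 2% FBS medium.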
row,IC50,Structure (SMILES)
1,> 30000 nM,"NS(=O)(=NC(=O)Nc1c2c(cc3c1CCC3)CCC2)c1ccc(-c2ccccc2)s1 (single isomer, unassigned) [Example 799, (R) or (S)-N′-((1,2,3,5,6,7-hexahydro-s-indacen-4-yl)carbamoyl)-5-phenylthiophene-2-sulfonimidamide]"

# Same assay, conditions: Table B3; hTHP-1 assay containing 2% fetal bovine serum, gramicidin stimulation, IL-1β readout; read-out: hTHP-1 IC50
row,Structure (SMILES),IC50
1,"CN(Cc1ccc(S(N)(=O)=NC(=O)Nc2c3c(cc4c2CC4)CCC3)c(F)c1)C1CCC1 (single isomer, unassigned) [Example 797, (R) or (S)-4-((cyclobutyl(methyl)amino)methyl)-2-fluoro-N′-((2,4,5,6-tetrahydro-1H-cyclobuta[f]inden-3-yl)carbamoyl)benzenesulfonimidamide]",200 to 1000 nM
2,"CN(Cc1ccc(S(N)(=O)=NC(=O)Nc2c3c(cc4c2CC4)CCC3)c(F)c1)C1CCC1 (single isomer, unassigned) [Example 798, (S) or (R)-4-((cyclobutyl(methyl)amino)methyl)-2-fluoro-N′-((2,4,5,6-tetrahydro-1H-cyclobuta[f]inden-3-yl)carbamoyl)benzenesulfonimidamide]",> 30000 nM
3,"NS(=O)(=NC(=O)Nc1c2c(cc3c1CCC3)CCC2)c1ccc(-c2ccccc2)s1 (single isomer, unassigned) [Example 800, (S) or (R)-N′-((1,2,3,5,6,7-hexahydro-s-indacen-4-yl)carbamoyl)-5-phenylthiophene-2-sulfonimidamide]",> 30000 nM
4,"CN(C)Cc1ccc(S(N)(=O)=NC(=O)Nc2c3c(cc4c2CCC4)CCC3)s1 (single isomer, unassigned) [Example 804, (S) or (R)-5-((dimethvlamino)methyl)-N′-((1,2,3,5,6,7-hexahydro-s-indacen-4-yl)carbamoyl)thiophene-2-sulfonimidamide]",5000 to 30000 nM
5,"CC(C)n1nc(S(N)(=O)=NC(=O)Nc2c3c(cc4c2C(=O)CC4)CCC3)cc1C(C)(C)O (single isomer, unassigned) [Example 805, (R) or (S)-5-(2-hydroxypropan-2-yl)-1-isopropyl-N′-((3-oxo-1,2,3,5,6,7-hexahydro-s-indacen-4-yl)carbamoyl)-1H-pyrazole-3-sulfonimidamide]",200 to 1000 nM
6,"CC(C)(O)c1nc(CO)c(S(N)(=O)=NC(=O)Nc2c3c(cc4c2C(=O)CC4)CCC3)s1 (single isomer, unassigned) [Example 807, (S) or (R)-4-(hydroxymethyl)-2-(2-hydroxypropan-2-yl)-N′-((3-oxo-1,2,3,5,6,7-hexahydro-s-indacen-4-yl)carbamoyl)thiazole-5-sulfonimidamide]",5000 to 30000 nM
7,"CN(C)CC(C)(C)c1ccc(S(N)(=O)=NC(=O)Nc2c3c(cc4c2CCC4)CCC3)cc1 (single isomer, unassigned) [Example 810, (S) or (R)-4-(1-(dimethylamino)-2-methylpropan-2-yl)-N′-((1,2,3,5,6,7-hcxahydro-s-indaccn-4-yl)carbamoyl)benzenesulfonimidamide]",5000 to 30000 nM
8,"CC(C)c1cnc(S(N)(=O)=NC(=O)Nc2c3c(cc4c2CCC4)CCC3)c(F)c1 (single isomer, unassigned) [Example 811, (R) or (S)-3-fluoro-N′-((1,2,3,5,6,7-hexahydro-s-indacen-4-yl)carbamoyl)-5-isopropylpyridine-2-sulfonimidamide]",200 to 1000 nM
9,"CC(C)c1cnc(S(N)(=O)=NC(=O)Nc2c3c(cc4c2CCC4)CCC3)c(F)c1 (single isomer, unassigned) [Example 812, (S) or (R)-3-fluoro-N′-((1,2,3,5,6,7-hexahydro-s-indacen-4-yl)carbamoyl)-5-isopropylpyridine-2-sulfonimidamide]",5000 to 30000 nM
10,"C[C@](O)(CO)c1ncc(S(N)(=O)=NC(=O)Nc2c3c(cc4c2CC4)CCC3)s1 (single isomer, unassigned) [Example 815, (R) or (S)-2-((S)-1,2-dihydroxypropan-2-yl)-N′-((2,4,5,6-tetrahydro-1H-cyclobuta[f]inden-3-yl)carbamoyl)thiazole-5-sulfonimidamide]",8 to 40 nM
11,"C[C@](O)(CO)c1ncc(S(N)(=O)=NC(=O)Nc2c3c(cc4c2CC4)CCC3)s1 (single isomer, unassigned) [Example 816, (S) or (R)-2-((S)-1,2-dihydroxypropan-2-yl)-N′-((2,4,5,6-tetrahydro-1H-cyclobuta[f]inden-3-yl)carbamoyl)thiazole-5-sulfonimidamide]",200 to 1000 nM
12,"C[C@@](O)(CO)c1ncc(S(N)(=O)=NC(=O)Nc2c3c(cc4c2C(=O)CC4)CCC3)s1 (single isomer, unassigned) [Example 819, (R) or (S) -2-((R)-1,2-dihydroxypropan-2-yl)-N′-((3-oxo-1,2,3,5,6,7-hexahydro-s-indacen-4-yl)carbamoyl)thiazole-5-sulfonimidamide]",200 to 1000 nM
13,"NS(=O)(=NC(=O)Nc1c2c(cc3c1CCC3)CCC2)c1ccc([C@@H]2CCCN2)s1 (single isomer, unassigned) [Example 821, (R) or (S) -N′-((1,2,3,5,6,7-hexahydro-s-indacen-4-yl)carbamoyl)-5-((S)-pyrrolidin-2-yl)thiophene-2-sulfonimidamide]",200 to 1000 nM
14,"NS(=O)(=NC(=O)Nc1c2c(cc3c1CCC3)CCC2)c1ccc([C@@H]2CCCN2)s1 (single isomer, unassigned) [Example 822, (S) or (R) -N′-((1,2,3,5,6,7-hexahydro-s-indacen-4-yl)carbamoyl)-5-((S)-pyrrolidin-2-yl)thiophene-2-sulfonimidamide]",1000 to 5000 nM

# Continued, values first:
row,IC50,Structure (SMILES)
1,5000 to 30000 nM,"CC(C)(O)c1sc(S(N)(=O)=NC(=O)Nc2c3c(cc4c2CCC4)CCC3)cc1-c1ccccc1 (single isomer, unassigned) [Example 801, (S) or (R)-N′-((1,2,3,5,6,7-hexahydro-s-indacen-4-yl)carbamoyl)-5-(2-hydroxypropan-2-yl)-4-phenylthiophene-2-sulfonimidamide]"
2,40 to 200 nM,"CC(C)(O)c1sc(S(N)(=O)=NC(=O)Nc2c3c(cc4c2CCC4)CCC3)cc1-c1ccccc1 (single isomer, unassigned) [Example 802, (R) or (S)-N′-((1,2,3,5,6,7-hexahydro-s-indacen-4-yl)carbamoyl)-5-(2-hydroxypropan-2-yl)-4-phenylthiophene-2-sulfonimidamide]"
3,200 to 1000 nM,"CN(C)Cc1ccc(S(N)(=O)=NC(=O)Nc2c3c(cc4c2CCC4)CCC3)s1 (single isomer, unassigned) [Example 803, (R) or (S)-5-((dimethylamino)methyl)-N′-((1,2,3,5,6,7-hexahydro-5-indacen-4-yl)carbamoyl)thiophene-2-sulfonimidamide]"
4,> 30000 nM,"CC(C)n1nc(S(N)(=O)=NC(=O)Nc2c3c(cc4c2C(=O)CC4)CCC3)cc1C(C)(C)O (single isomer, unassigned) [Example 806, (S) or (R)-5-(2-hydroxypropan-2-yl)-1-isopropyl-N′-((3-oxo-1,2,3,5,6,7-hexahydro-5-indacen-4-yl)carbamoyl)-1H-pyrazole-3-sulfonimidamide]"
5,1000 to 5000 nM,"CC(C)(O)c1nc(CO)c(S(N)(=O)=NC(=O)Nc2c3c(cc4c2C(=O)CC4)CCC3)s1 (single isomer, unassigned) [Example 808, (R) or (S)-4-(hydroxymethyl)-2-(2-hydroxypropan-2-yl)-N′-((3-oxo-1,2,3,5,6,7-hexahydro-s-indacen-4-yl)carbamoyl)thiazole-5-sulfonimidamide]"
6,200 to 1000 nM,"CN(C)CC(C)(C)c1ccc(S(N)(=O)=NC(=O)Nc2c3c(cc4c2CCC4)CCC3)cc1 (single isomer, unassigned) [Example 809, (R) or (S)-4-(1-(dimethylamino)-2-methylpropan-2-yl)-N′-((1,2,3,5,6,7-hexahydro-s-indacen-4-yl)carbamoyl)benzenesulfonimidamide]"
7,40 to 200 nM,"CCn1ccc(S(N)(=O)=NC(=O)Nc2c3c(cc4c2CCC4)CCC3)n1 (single isomer, unassigned) [Example 813, (R) or (S)-1-ethyl-N′-((1,2,3,5,6,7-hexahydro-s-indacen-4-yl)carbamoyl)-1H-pyrazole-3-sulfonimidamide]"
8,1000 to 5000 nM,"CCn1ccc(S(N)(=O)=NC(=O)Nc2c3c(cc4c2CCC4)CCC3)n1 (single isomer, unassigned) [Example 814, (S) or (R)-1-ethyl-N′-((1,2,3,5,6,7-hexahydro-s-indacen-4-yl)carbamoyl)-1H-pyrazole-3-sulfonimidamide]"
9,8 to 40 nM,"C[C@@](O)(CO)c1ncc(S(N)(=O)=NC(=O)Nc2c3c(cc4c2CC4)CCC3)s1 (single isomer, unassigned) [Example 817, (R) or (S)-2-((R)-1,2-dihydroxypropan-2-yl)-N′-((2,4,5,6-tetrahydro-1H-cyclobuta[f]inden-3-yl)carbamoyl)thiazole-5-sulfonimidamide]"
10,200 to 1000 nM,"C[C@@](O)(CO)c1ncc(S(N)(=O)=NC(=O)Nc2c3c(cc4c2CC4)CCC3)s1 (single isomer, unassigned) [Example 818, (S) or (R)-2-((R)-1,2-dihydroxypropan-2-yl)-N′-((2,4,5,6-tetrahydro-1H-cyclobuta[f]inden-3-yl)carbamoyl)thiazole-5-sulfonimidamide]"
11,5000 to 30000 nM,"C[C@@](O)(CO)c1ncc(S(N)(=O)=NC(=O)Nc2c3c(cc4c2C(=O)CC4)CCC3)s1 (single isomer, unassigned) [Example 820, (S) or (R)-2-((R)-1,2-dihydroxypropan-2-yl)-N′-((3-oxo-1,2,3,5,6,7-hexahydro-s-indacen-4-yl)carbamoyl)thiazole-5-sulfonimidamide]"
12,200 to 1000 nM,"NS(=O)(=NC(=O)Nc1c2c(cc3c1CCC3)CCC2)c1ccc([C@H]2CCCN2)s1 (single isomer, unassigned) [Example 823, (R) or (S) -N′-((1,2,3,5,6,7-hexahydro-s-indacen-4-yl)carbamoyl)-5-((R)-pyriolidin-2-yl)thiophene-2-sulfonimidamide]"
